Experiments:
[1] = tested on: microorganisms; conditions: 1 m^3 air comprising 0.3 ppm sprayed hydrogen peroxide; TSA growth medium
Description: The surface of the growth medium was spread with an aqueous suspension comprising a predetermined number of microorganisms.
The TSA growth media were next placed in a temperature-controlled incubator to enable the growth of the colonies of microorganisms.

[2] = tested on: Miccrococus luteus ATCC9342; experiment: Tolerance in drastic conditions: 100 and 300 ppm hydrogen peroxide, 1% and 5% pyruvate in TSA (Example 5, part 3, Table I); format: cell-based, Miccrococcus luteus; conditions: hydrogen peroxide 300 ppm; pyruvate 5%
Description: The conditions of Example 3 were reproduced using high concentrations of pyruvate (≧1%), in the presence or absence of hydrogen peroxide in the gaseous environment.
3/ Tolerance of Miccrococcus luteus in drastic conditions, when hydrogen peroxide is raised up to 300 ppm in the gaseous environment and the concentration of pyruvate is up to 5% by weight of agar growth medium.
Miccrococcus luteus growth has been monitored using respectively 100 ppm and 300 ppm of hydrogen peroxide, whereas the concentration of pyruvate by weight of TSA agar growth medium was 1% and 5%.

[3] = tested on: microorganisms; experiment: Level of recovery of microorganisms on TSA medium with 1% sodium pyruvate, after impact of air comprising hydrogen peroxide vapour (Examples 3 and 4); format: cell-based; conditions: 1 m^3 air, 8 ppm hydrogen peroxide vapour; TSA + 1% by weight sodium pyruvate
Description: Example 1 was reproduced but with the use of 1 m^3 of air comprising 8 ppm (instead of 0.3 ppm) of hydrogen peroxide vapour (instead of sprayed hydrogen peroxide which was impacted, firstly, on a TSA growth medium, then, secondly, on the TSA medium to which 1% by weight of sodium pyruvate was added.
The results obtained are shown in FIG. 2, in which the x-axis represents the nature of the microorganisms and the y-axis represents the level of recovery.
Example 3 was reproduced by sampling 1 m^3 of air comprising 8 ppm of hydrogen peroxide which were impacted, firstly, on the same TSA growth medium to which 1% by weight of sodium pyruvate was added, not sterilized by the action of gamma radiation. Then, secondly, the same test was repeated but, this time, on the same growth medium sterilized by the action of gamma radiation.
The results obtained are shown in FIG. 3, in which the x-axis represents the nature of the microorganisms and the y-axis represents the level of recovery.

| Structure (SMILES) | effect on formation of colonies of microorganisms [1] | growth of Miccrococcus luteus [2] | formation and counting of colonies of microorganisms [3] |
| --- | --- | --- | --- |
| OO [hydrogen peroxide] | inhibiting of the formation of the colonies of microorganisms | – | – |
| CC(=O)C(=O)[O-].[Na+] [sodium pyruvate] | – | enable growth of Miccrococcus luteus | permits the formation and counting of colonies of microorganisms |

— patent publication US7192734B2, “Method of testing for the presence of microorganisms in a gaseous environment comprising hydrogen peroxide” (Millipore Corporation, priority 2002, dated 2007)
